Measured values from PubChem BioAssay AID1919005 (Molecular Pharmacology Branch, DTP, NCI, 2023).

System: 855422-203-R-J1-PDC complex spheroid growth
Assay: Anticancer human tumor 855422-203-R-J1-PDC patient-derived bladder carcinoma cell line growth inhibition [AhR]
Conditions: for viability, T/C: stronger effect = lower value
Method in brief: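 Spheroids combined tumor cells with HUVEC endothelial cells and human MSCs as stroma. AhR antagonists were paired with standard or investigational drugs, each dosed in half-log steps down from near clinical Cmax, or from 10 microM where Cmax was unknown.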

[1] = curve of first compound, second compound 0.1 µM
[2] = curve of first compound, second compound 0.316 µM
[3] = curve of first compound, second compound 1 µM
[4] = curve of first compound, second compound 3.16 µM
[5] = curve of first compound, second compound 10 µM
[6] = second compound 0.1 µM, first compound 0.0316 µM
[7] = second compound 0.1 µM, first compound 0.1 µM
[8] = second compound 0.316 µM, first compound 0.0316 µM
[9] = second compound 0.316 µM, first compound 0.1 µM
[10] = second compound 1 µM, first compound 0.0316 µM
[11] = second compound 1 µM, first compound 0.1 µM
[12] = second compound 3.16 µM, first compound 0.0316 µM
[13] = second compound 3.16 µM, first compound 0.1 µM
[14] = second compound 10 µM, first compound 0.0316 µM
[15] = second compound 10 µM, first compound 0.1 µM
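Note: spheroids exposed to agents for seven days before readout.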
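Throughout, for viability, T/C: percent of DMSO vehicle control luminescence viability.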

In the case of Cn1ncnc1C1c2n[nH]c(=O)c3cc(F)cc(c23)NC1c1ccc(F)cc1 (stereo not given) + Cc1ccccc1N=Nc1ccc(NC(=O)c2ccnn2C)c(C)c1, the IC50 [1] is reported as > 100 nM, the IC50 [2] is reported as > 100 nM and the IC50 [3] is reported as > 100 nM. For the same compound, the IC50 [4] was > 100 nM, the IC50 [5] was > 100 nM and the viability, T/C (second compound 0.1 µM, first compound 0.000316 µM) was 102%. It also gave a viability, T/C (second compound 0.1 µM, first compound 0.001 µM) of 96%, a viability, T/C (second compound 0.1 µM, first compound 0.00316 µM) of 102% and a viability, T/C (second compound 0.1 µM, first compound 0.01 µM) of 100%. For the same compound, the viability, T/C [6] was 93.8%, the viability, T/C [7] was 100% and the viability, T/C (second compound 0.316 µM, first compound 0.000316 µM) was 106%. The viability, T/C (second compound 0.316 µM, first compound 0.001 µM) was 96.4%, the viability, T/C (second compound 0.316 µM, first compound 0.00316 µM) was 95.7% and the viability, T/C (second compound 0.316 µM, first compound 0.01 µM) was 96.1%. For the same compound, the viability, T/C [8] was 92.6%, the viability, T/C [9] was 90% and the viability, T/C (second compound 1 µM, first compound 0.000316 µM) was 104%. For the same compound, the viability, T/C (second compound 1 µM, first compound 0.001 µM) was 105%, the viability, T/C (second compound 1 µM, first compound 0.00316 µM) was 97.7% and the viability, T/C (second compound 1 µM, first compound 0.01 µM) was 103%. For the same compound, the viability, T/C [10] was 98.2%, the viability, T/C [11] was 96.3% and the viability, T/C (second compound 3.16 µM, first compound 0.000316 µM) was 88.4%. For the same compound, the viability, T/C (second compound 3.16 µM, first compound 0.001 µM) was 97.3%, the viability, T/C (second compound 3.16 µM, first compound 0.00316 µM) was 93.9% and the viability, T/C (second compound 3.16 µM, first compound 0.01 µM) was 90.8%. It also gave a viability, T/C [12] of 87.4%, a viability, T/C [13] of 91.8% and a viability, T/C (second compound 10 µM, first compound 0.000316 µM) of 80.1%. For the same compound, the viability, T/C (second compound 10 µM, first compound 0.001 µM) was 78.5%, the viability, T/C (second compound 10 µM, first compound 0.00316 µM) was 82.5% and the viability, T/C (second compound 10 µM, first compound 0.01 µM) was 81.6%. For the same compound, the viability, T/C [14] was 76.2% and the viability, T/C [15] was 77%.
CC(CO)NC(=O)c1cc(-c2ccc(Cl)cc2)nn(-c2cnn(C)c2)c1=O (stereo not given) was tested, and the viability, T/C (compound 0.1 µM) was 92.2% [middle of 20 runs], the viability, T/C (compound 1 µM) was 94.9% [middle of 21 runs] and the viability, T/C (compound 3.16 µM) was 96.8% [middle of 19 runs]. For the same compound, the viability, T/C (compound 10 µM) was 91.4% [middle of 19 runs] and the IC50 (compound alone, run of 05/31/2022) was > 10000 nM.
In the case of CCN(c1cc(-c2ccc(CN3CCOCC3)cc2)cc(C(=O)NCc2c(C)cc(C)[nH]c2=O)c1C)C1CCOCC1 + Cc1ccccc1N=Nc1ccc(NC(=O)c2ccnn2C)c(C)c1, the IC50 [1] is reported as > 3000 nM, the IC50 [2] is reported as > 3000 nM and the IC50 [3] is reported as > 3000 nM. For the same compound, the IC50 [4] was > 3000 nM, the IC50 [5] was > 3000 nM and the viability, T/C (second compound 0.1 µM, first compound 0.00949 µM) was 105%. It also gave a viability, T/C (second compound 0.1 µM, first compound 0.03 µM) of 93.4%, a viability, T/C (second compound 0.1 µM, first compound 0.0949 µM) of 93.2% and a viability, T/C (second compound 0.1 µM, first compound 0.3 µM) of 91.2%. The viability, T/C (second compound 0.1 µM, first compound 0.949 µM) was 91.1%, the viability, T/C (second compound 0.1 µM, first compound 3 µM) was 87.5% and the viability, T/C (second compound 0.316 µM, first compound 0.00949 µM) was 93.7%. The viability, T/C (second compound 0.316 µM, first compound 0.03 µM) was 93.2%, the viability, T/C (second compound 0.316 µM, first compound 0.0949 µM) was 92.6% and the viability, T/C (second compound 0.316 µM, first compound 0.3 µM) was 97.3%. For the same compound, the viability, T/C (second compound 0.316 µM, first compound 0.949 µM) was 87%, the viability, T/C (second compound 0.316 µM, first compound 3 µM) was 85.3% and the viability, T/C (second compound 1 µM, first compound 0.00949 µM) was 105%. For the same compound, the viability, T/C (second compound 1 µM, first compound 0.03 µM) was 98.8%, the viability, T/C (second compound 1 µM, first compound 0.0949 µM) was 95.6% and the viability, T/C (second compound 1 µM, first compound 0.3 µM) was 96.3%. It also gave a viability, T/C (second compound 1 µM, first compound 0.949 µM) of 92.8%, a viability, T/C (second compound 1 µM, first compound 3 µM) of 85.3% and a viability, T/C (second compound 3.16 µM, first compound 0.00949 µM) of 91.3%. For the same compound, the viability, T/C (second compound 3.16 µM, first compound 0.03 µM) was 90.2%, the viability, T/C (second compound 3.16 µM, first compound 0.0949 µM) was 84.3% and the viability, T/C (second compound 3.16 µM, first compound 0.3 µM) was 87.1%. It also gave a viability, T/C (second compound 3.16 µM, first compound 0.949 µM) of 83.6%, a viability, T/C (second compound 3.16 µM, first compound 3 µM) of 82.3% and a viability, T/C (second compound 10 µM, first compound 0.00949 µM) of 84.2%. The viability, T/C (second compound 10 µM, first compound 0.03 µM) was 76.8%, the viability, T/C (second compound 10 µM, first compound 0.0949 µM) was 79.8% and the viability, T/C (second compound 10 µM, first compound 0.3 µM) was 77.8%. It also gave a viability, T/C (second compound 10 µM, first compound 0.949 µM) of 71.3% and a viability, T/C (second compound 10 µM, first compound 3 µM) of 72.4%.
NS(=O)(=O)OCC1CC(n2ccc3c(NC4CCc5ccccc54)ncnc32)CC1O (stereo not given) + Cc1ccccc1N=Nc1ccc(NC(=O)c2ccnn2C)c(C)c1 was tested, and the IC50 [1] was 3020 nM, the IC50 [2] was 2530 nM and the IC50 [3] was 1970 nM. The IC50 [4] was 1030 nM, the IC50 [5] was 484 nM and the viability, T/C [6] was 104%. For the same compound, the viability, T/C [7] was 110%, the viability, T/C (second compound 0.1 µM, first compound 0.316 µM) was 124% and the viability, T/C (second compound 0.1 µM, first compound 1 µM) was 98.5%. The viability, T/C (second compound 0.1 µM, first compound 3.16 µM) was 48.5%, the viability, T/C (second compound 0.1 µM, first compound 10 µM) was 16.3% and the viability, T/C [8] was 102%. The viability, T/C [9] was 113%, the viability, T/C (second compound 0.316 µM, first compound 0.316 µM) was 120% and the viability, T/C (second compound 0.316 µM, first compound 1 µM) was 90.3%. For the same compound, the viability, T/C (second compound 0.316 µM, first compound 3.16 µM) was 40.9%, the viability, T/C (second compound 0.316 µM, first compound 10 µM) was 16.5% and the viability, T/C [10] was 101%. For the same compound, the viability, T/C [11] was 115%, the viability, T/C (second compound 1 µM, first compound 0.316 µM) was 109% and the viability, T/C (second compound 1 µM, first compound 1 µM) was 77.7%. The viability, T/C (second compound 1 µM, first compound 3.16 µM) was 31.1%, the viability, T/C (second compound 1 µM, first compound 10 µM) was 15.3% and the viability, T/C [12] was 105%. For the same compound, the viability, T/C [13] was 110%, the viability, T/C (second compound 3.16 µM, first compound 0.316 µM) was 78.8% and the viability, T/C (second compound 3.16 µM, first compound 1 µM) was 54.2%. For the same compound, the viability, T/C (second compound 3.16 µM, first compound 3.16 µM) was 20.7%, the viability, T/C (second compound 3.16 µM, first compound 10 µM) was 12% and the viability, T/C [14] was 73.8%. For the same compound, the viability, T/C [15] was 80.2%, the viability, T/C (second compound 10 µM, first compound 0.316 µM) was 56.5% and the viability, T/C (second compound 10 µM, first compound 1 µM) was 35.2%. It also gave a viability, T/C (second compound 10 µM, first compound 3.16 µM) of 13.6% and a viability, T/C (second compound 10 µM, first compound 10 µM) of 12.1%.
